Tests used:
ASGPR = biological target: T1, ASGPR (Homo sapiens, UniProt P07306); details: cited from earlier work
T1 sequence (P07306 1-291): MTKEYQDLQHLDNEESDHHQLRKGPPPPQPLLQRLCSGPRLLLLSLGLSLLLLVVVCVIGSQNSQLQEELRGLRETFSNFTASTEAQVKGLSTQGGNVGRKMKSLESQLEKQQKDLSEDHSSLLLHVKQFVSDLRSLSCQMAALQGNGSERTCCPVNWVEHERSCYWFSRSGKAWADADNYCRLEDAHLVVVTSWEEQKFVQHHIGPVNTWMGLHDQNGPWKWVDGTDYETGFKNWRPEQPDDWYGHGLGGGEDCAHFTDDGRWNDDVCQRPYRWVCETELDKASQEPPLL

[1] = test system: severe acetaminophen poisoning; experiment: Gal-D4-NAC treatment in mouse model of severe acetaminophen poisoning; type: in vivo, C57BL6 mice
Description: A model of severe acetaminophen poisoning was established through the administration of 700 mg/kg APAP i.p. to C57BL6 mice (FIG. 12A). There was a high mortality rate, with >90% of mice given APAP overdose dying with 72 hours regardless of treatment with free NAC (FIG. 12B). FIG. 12B represents the survival of healthy sham (black) and saline (red), free NAC (green), and Gal-D4-NAC (blue) treated animals as determined by mass reduction below 80% of the initial animal mass. This model replicates the effects of APAP overdose that result in fulminant liver failure and are considered untreatable with the current clinical NAC regiment. Additionally, to mimic delayed treatment due to late arrival at the hospital, animals eight hours after APAP overdose were also treated as opposed to the pre- and co-treatments with nanoparticles that are typically reported in this model. Both dendrimer and free drug treated animals received 100 mg/kg of NAC, which is […] of the dose that would be administered over 24 hours by i.v. infusion in the clinic.
Next liver necrosis and function were assessed through analysis of images from liver sections isolated at time of death and stained for hematoxylin and eosin. […] After receiving an overdose of APAP, liver structure is essentially destroyed. […]

Compound	monovalent binding affinity to ASGPR (ASGPR)	mice dying ([1]; 700 mg/kg APAP i.p., 72 hours) [%]	liver architecture / liver health ([1]; single i.v. dose 100 mg/kg on a NAC basis)
CC(=O)N[C@H]1C(O)O[C@H](CO)[C@H](O)[C@@H]1O (stereo partly drawn) [N-acetylgalactosamine (GalNAc), N-acetylgalactosamine]	micromolar scale	–	–
CC(=O)N[C@@H](CS)C(=O)O [free NAC, N-acetyl cysteine]	–	> 90	unable to have any effect on liver health

— US20230338554A1, “GALACTOSYLATED DENDRIMERS FOR TARGETED INTRACELLULAR DELIVERY TO HEPATOCYTES” (The Johns Hopkins University, priority 2020, published 2023)
